This is an account of results in patent US20180177805A1, “Intravitreal Lysine Acetylsalicylate As Treatment For Diabetic Retinopathy” (Fundación Para El Fomento De La Investigación Sani taria Y …, priority 2015, published 2018).

Series [1] deals with ICAM-1 endothelial marker. The series is described as follows: ICAM-1 endothelial cell count by immunohistochemistry in retina sections, streptozotocin diabetic retinopathy model, after intravitreal injection. The settings on record: treated (CASE) diabetic rats. In kind it is in vivo, Wistar rat. An excerpt: 2. […] ICAM-1 is a transmembrane protein present in the endothelial cells and practically specific to them. Its immunohistochemical staining allows the endothelial cells present in the different layers of examined tissues to be quantitatively indicated and assessed and it gives us information concerning the vascularization of the examined tissues and the integrity of the vascular wall.
(§1) Pursuant to approval of the Bioethics Committee for Research of the University of Miguel Hernandez de Elche and based on the international standards for the use of animal experimentation, […] confined male Wistar rat specimens weighing 200 grams were induced to suffer diabetes by means of injecting intraperitoneal streptozotocin (75 mg/kg) in a single dose. The animals were monitored during the whole study continuously in terms of weight, blood sugar, loss of hair and formation of cataracts. All the animals were exposed to the same parameters of light, darkness and availability of water and food.
(§2) For the intravitreal injection, the animals were anesthetized with a mixture in a proportion of 1:1 of xylazine hydrochloride (4 mg/kg) and ketamine hydrochloride (10 mg/kg). Under mydriasis with 0.5% tropicamide, the intravitreal injection of the lysine acetylsalicylate solution was carried out under a surgical microscope with a micro injection syringe (Hamilton Co., Reno, Nev.) and a 32 gauge needle at 1 millimeter from the temporal limbus. Only half the diabetic animals were treated with the intravitreal solution, the rest of the animals were left to develop diabetic retinopathy naturally. The process of intravitreal injection was repeated in the same way, technique and dose in the same animals 4 weeks after the initial treatment. Summary of the organization of the experimental test: • Initially, the animals were evaluated prior to including them in the experimental test to discard those with defects or basic ocular changes. • The inducement of diabetes was carried out in all the animals by means of injecting intraperitoneal streptozotocin. • The blood sugar indices were compared at 24 and 48 hours of the injection to assess whether the inducement had been successful. • Once diabetes was confirmed, the animals were divided into two groups formed by 8 rats each. • Following the diabetic retinopathy model in rats, diabetes was left to develop naturally in both groups over the first 12 weeks.
Laminar sections of the retina of all the animals were carried out, being exposed to the action of 4% formaldehyde preservatives. […] After fixing the different sections of stained tissue, the positively stained molecules and the amount of blood vessels present were counted under an optical microscope (Leica® microsystem) with 10× magnification. […]

The subject of series [2] is CD18 leucocyte marker. The series is described as follows: CD18 leucocyte count by immunohistochemistry in retina sections, streptozotocin diabetic retinopathy model, after intravitreal injection. The settings on record: for CD18 count: treated (CASE) diabetic rats. Format: in vivo, Wistar rat.
Description: 1. CD18 leucocyte marker: the leucocyte is the main effector cell of the inflammatory response of the tissues, something which also occurs in the retina. CD18 is a surface molecule which is expressed in the membranes of the leucocytes activated in tissues where there is inflammation, as is the case with the diabetic retina. Determine its absolute and relative number helps to know whether the injected solution is capable of reducing the presence of leucocytes activated in determined layers of the retina as part of their anti-inflammatory action.
as §1, §2
(§3) Laminar sections of the retina of all the animals were carried out, being exposed to the action of 4% formaldehyde preservatives. For the marking of the endothelial cells, an anti-ICAM1 monoclonal antibody was used, we also used anti-CD18 monoclonal antibodies for the staining of the leucocytes. After fixing the different sections of stained tissue, the positively stained molecules and the amount of blood vessels present were counted under an optical microscope (Leica® microsystem) with 10× magnification.
For the purposes of assessing significant differences between the different regions of the retina, in all the tissues, the cell and vessel counts corresponding to the central retina (between optical nerve and macular area) and those corresponding to the peripheral retina (outside of the vascular arches) were carried out separately. These counts were specifically carried out on two layers of the retina: the external plexiform layer and the ganglion cell layer.
The U Mann-Whitney contrast test was used for independent samples. To contrast the correlation between the variables, the Spearman test was used.

The subject of series [3] is blood vessels of the retina. The series is described as follows: Vascular density (blood vessel count per tissue section) in retina, streptozotocin diabetic retinopathy model, after intravitreal injection. Format: in vivo, Wistar rat. The conditions noted are these: for VESSELS count: treated (CASE) diabetic rats.
Description: 3. Vascular density: the chronic inflammation caused in diabetic retinopathy involves obliteration and death of the blood vessels. […] This scenario is a final stage of the phenomenon known as diabetic microangiopathy. Thus, determining the number of vessels present in each section of tissue can give us information concerning whether or not the medicament is capable of positively or negatively influencing the capillary density of the retina (vessels/portion of tissue).
as §1, §2, §3
For the purposes of assessing significant differences between the different regions of the retina, in all the tissues, the cell and vessel counts corresponding to the central retina (between optical nerve and macular area) and those corresponding to the peripheral retina (outside of the vascular arches) were carried out separately. These counts were specifically carried out on two layers of the retina: the external plexiform layer and the ganglion cell layer. […]

For series [4], the system named is retina. Further details: species or system Wistar rat. The settings on record: rat, in vivo. The procedure: as §2, with “The process of intravitreal injection was repeated in the same way, technique and dose in the same animals 4 weeks after the initial treatment.” left out, “weeks. […]” for “weeks.”
The mark [5] stands for this setting: central retina, external plexiform layer, 25 micrograms intravitreal at weeks 12 and 16, sacrifice week 20.
The mark [6] stands for this setting: peripheral retina, external plexiform layer.
The mark [7] stands for this setting: peripheral retina, ganglion layer.
The mark [8] stands for this setting: treated animals, central retina (text says plexiform layer), range 3-6.

For `CC(=O)Oc1ccccc1C(=O)O` [lysine acetylsalicylate], the ICAM1 count was 15.0 (14.0-17.5) in series [1] (setting [5]); 4.0 (3.0-5.0) in series [1] (central retina, ganglion layer); 9.0 (7.0-11.0) in series [1] (setting [6]); 2.0 (1.3-3.0) in series [1] (setting [7]). Further, the CD18 count is on record as 16.5 (14.0-18.0) in series [2] (setting [5]); 5.0 (3.0-6.0) in series [2] (central retina, ganglion layer); 8.0 (6.0-9.0) in series [2] (setting [6]); 3.0 (2.0-4.0) in series [2] (setting [7]). Besides, the “CD18 count, average” value in series [2] (setting [8]) turned out to be 5. Besides, the “leucocytes per field relative to number expected from vessel count (regression model)” value in series [2] (treated group, central retina, expected at least 10 leucocytes per field) is given as “half the leucocytes which would be expected”. Also, the VESSELS count in series [3] (setting [5]) is reported as 9.0 (7.0-11.0); in series [3] (central retina, ganglion layer) it was 5.0 (2.8-6.0); in series [3] (setting [6]) it was 6.0 (5.0-7.0); in series [3] (setting [7]), 3.0 (1.8-4.0). In addition, the “vessels per tissue section, average” value in series [3] (setting [8]) was determined as 5. The “signs of medicament toxicity (de-structuring of retinal layers, absence of photoreceptor cells, histological alterations of optical nerve)” value in series [4] is recorded as “No tissues were found to have signs that showed alterations suggesting toxicity”.
